Laboratory results as given in the supplement of paper PMC10307832.

What was measured:
Test in all cases: relative viability (nuclei count vs DMSO), 5 days (fraction); higher = more cells survive
[1] = compound: CCn1c(-c2nonc2N)nc2c(C#CC(C)(C)O)ncc(OC[C@H]3CCCNC3)c21 + C[C@]1(O)C[C@@H](c2nc(-c3ccc4ccc(-c5ccccc5)nc4c3)c3c(N)nccn32)C1 [Linsitinib] (partner 1 µM)
Outline: (§1)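 Cells from lung cancer lines were seeded into 1536-well plates and, one day later, dosed by pin tool. Treatments were either a single drug or a fixed dose of an anchor drug with five library-drug doses (not always all listed) in √10 steps. After 5 days, nuclei were stained in a one-step fixation (final 0.05% Triton X-100, 1% formaldehyde, 1 ug/ml Hoechst) and counted on 4× images, and relative viability is the treated-to-vehicle nuclei ratio, as the median of duplicate plates.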

[2] = compound: CCOC1=CC=CC=C1N=NC2=C(NN(C2=O)C3=NC(=CS3)C4=CC=CC=C4)C [BAM7] + Nc1ncn([C@H]2C[C@H](O)[C@@H](CO)O2)c(=O)n1 [Decitabine] (partner 2 µM)
Outline: as §1

[3] = compound: CCOC1=CC=CC=C1N=NC2=C(NN(C2=O)C3=NC(=CS3)C4=CC=CC=C4)C [BAM7] + CCNC(=O)c1noc(-c2cc(C(C)C)c(O)cc2O)c1-c1ccc(CN2CCOCC2)cc1 [Luminespib] (partner 0.01 µM)
Outline: as §1

[4] = compound: CCOC1=CC=CC=C1N=NC2=C(NN(C2=O)C3=NC(=CS3)C4=CC=CC=C4)C [BAM7] + N=C(N)NC(=N)NCCc1ccccc1 [Phenformin] (partner 250 µM)
Outline: as §1

Cell Line	relative viability ([1]; first compound 0.01 µM)	relative viability ([1]; first compound 0.03162 µM)	relative viability ([1]; first compound 0.1 µM)	relative viability ([1]; first compound 0.3162 µM)	relative viability ([1]; first compound 1 µM)	relative viability ([2]; first compound 0.5 µM)	relative viability ([2]; first compound 5 µM)	relative viability ([2]; first compound 15.81 µM)	relative viability ([2]; first compound 50 µM)	relative viability ([3]; first compound 0.5 µM)	relative viability ([3]; first compound 5 µM)	relative viability ([3]; first compound 15.81 µM)	relative viability ([3]; first compound 50 µM)	relative viability ([4]; first compound 0.5 µM)	relative viability ([4]; first compound 5 µM)	relative viability ([4]; first compound 15.81 µM)	relative viability ([4]; first compound 50 µM)
NCI-H2087	0.966	0.746	0.932	0.924	0.838	0.339	0.289	0.292	0.297	0.183	0.216	0.18	0.172	0.464	0.473	0.43	0.49
BEN	0.9	1.08	0.772	0.767	0.967	0.726	0.741	0.673	0.905	0.444	0.494	0.382	0.272	0.257	0.248	0.286	0.294
LCLC-103H	1.13	1.09	1.01	1.04	1.15	0.751	0.77	0.709	0.708	0.837	0.919	0.946	0.979	0.334	0.354	0.336	0.327
EKVX	0.997	0.952	1.03	0.954	0.976	0.372	0.355	0.284	0.334	0.909	0.925	0.618	0.803	0.241	0.235	0.198	0.231
LXF-289	0.971	0.945	0.96	0.882	0.951	0.341	0.339	0.353	0.407	0.756	0.686	0.628	0.665	0.556	0.552	0.524	0.516
ABC-1	0.818	0.73	0.847	0.685	0.526	1.06	0.983	1.34	1.06	0.291	0.496	0.469	0.773	0.223	0.237	0.247	0.266
NCI-H650	0.714	0.79	0.959	0.766	0.789	0.297	0.323	0.315	0.448	0.73	1.03	0.755	0.917	0.443	0.506	0.499	0.495
NCI-H2085	0.843	0.91	0.804	0.879	0.921	0.558	0.549	0.47	0.604	0.436	0.376	0.503	0.372	0.691	0.619	0.625	0.711
NCI-H1793	0.761	0.835	0.756	0.851	0.806	0.469	0.552	0.467	0.486	0.172	0.153	0.201	0.17	0.342	0.338	0.348	0.317
LC-2-ad	0.878	0.919	0.836	0.849	0.875	0.786	0.774	0.751	0.689	1.06	1.26	0.951	1.03	0.538	0.55	0.582	0.591
COR-L 105	1.1	0.848	1.29	0.747	0.81	0.606	0.7	0.678	0.622	0.668	0.892	0.706	0.734	0.516	0.503	0.551	0.534
NCI-H1355	0.899	0.804	0.877	0.685	0.869	0.357	0.357	0.319	0.37	0.697	0.754	0.637	0.707	0.462	0.421	0.425	0.458
H3255	0.958	1.09	0.903	0.888	0.843	0.588	0.612	0.582	0.603	0.801	1.12	0.787	1.03	0.353	0.343	0.386	0.384
NCI-H1993	0.774	0.736	0.758	0.731	0.767	0.582	0.633	0.498	0.551	0.81	0.869	0.744	0.702	0.575	0.617	0.533	0.543
NCI-H1734	0.872	0.879	0.782	0.817	0.884	0.515	0.519	0.551	0.489	0.215	0.202	0.171	0.211	0.41	0.491	0.392	0.401
HOP-62	1.07	0.942	1.03	0.921	0.878	0.191	0.256	0.226	0.255	0.89	0.987	0.911	0.844	0.668	0.867	0.664	0.714
LOU-NH91	0.953	0.987	0.963	0.88	0.886	0.815	0.859	0.783	0.799	0.38	0.336	0.332	0.347	0.689	0.795	0.66	0.66
PC-14	0.967	0.975	0.963	0.849	0.919	0.243	0.183	0.208	0.208	0.208	0.16	0.152	0.143	0.619	0.558	0.588	0.591

Cell Line	relative viability ([1]; first compound 0.01 µM)	relative viability ([1]; first compound 0.03162 µM)	relative viability ([1]; first compound 0.1 µM)	relative viability ([1]; first compound 0.3162 µM)	relative viability ([1]; first compound 1 µM)	relative viability ([2]; first compound 0.5 µM)	relative viability ([2]; first compound 5 µM)	relative viability ([2]; first compound 15.81 µM)	relative viability ([2]; first compound 50 µM)	relative viability ([3]; first compound 0.5 µM)	relative viability ([3]; first compound 5 µM)	relative viability ([3]; first compound 15.81 µM)	relative viability ([3]; first compound 50 µM)	relative viability ([4]; first compound 0.5 µM)	relative viability ([4]; first compound 5 µM)	relative viability ([4]; first compound 15.81 µM)	relative viability ([4]; first compound 50 µM)
NCI-H1437	0.948	1.05	1.04	1.01	0.956	0.527	0.572	0.543	0.482	1.16	1.13	1.12	1.09	0.263	0.23	0.3	0.275
NCI-H460	0.747	0.752	0.687	0.774	0.64	0.475	0.455	0.473	0.449	0.0323	0.0283	0.029	0.0339	0.521	0.573	0.513	0.534
NCI-H1666	0.805	0.92	0.928	0.732	0.738	0.691	0.775	0.718	0.677	1	0.953	1.03	1.03	0.592	0.588	0.588	0.563
NCI-H1651	0.926	0.941	0.919	0.871	0.958	0.598	0.66	0.617	0.599	0.761	0.836	0.853	0.734	0.306	0.303	0.343	0.354
NCI-H1755	1.04	1.02	1	0.954	1.01	0.667	0.774	0.711	0.793	0.431	0.495	0.525	0.524	0.657	0.657	0.611	0.645
NCI-H661	0.566	0.658	0.508	0.546	0.576	0.597	0.579	0.611	0.579	0.916	0.938	0.96	0.921	0.241	0.258	0.264	0.298
HARA	0.861	0.961	0.973	0.947	1.11	0.538	0.59	0.545	0.531	0.678	0.868	0.682	0.66	0.425	0.51	0.431	0.428
NCI-H596	0.993	1.08	0.931	1.03	1.03	0.879	0.984	0.908	1.09	0.848	0.956	0.951	1.18	0.751	0.804	0.705	0.811
NCI-H23	0.542	0.722	0.619	0.491	0.611	0.347	0.332	0.322	0.304	0.218	0.249	0.225	0.206	0.816	0.76	0.86	0.856
LCLC-97TM1		0.159	0.169	0.229	0.21	0.252	0.269		0.24	0.848	0.803	0.825	1.01	0.45	0.443	0.43	0.473
EPLC-272H	1.24	1.21	1.03	1.17	1.39	0.382	0.418	0.317	0.392	0.317		0.317	0.507	0.291		0.322	0.281
NCI-H1915	1.08	1.1	1.05	1.12	1.08	0.266	0.259	0.249	0.281	0.769	0.886	0.833	0.76	0.377	0.374	0.405	0.382
NCI-H2405	0.924	1.06		0.794	1.02	0.765	0.804	0.757	0.73	0.868	0.77	0.824	0.68	0.395	0.411	0.416	0.435
NCI-H322M	0.976	0.988	0.942	0.89	0.909	0.761	0.722	0.742	0.692	0.876	0.966	0.903	0.93	0.77	0.805	0.806	0.799
NCI-H1395	0.997	0.972	1.12	1	0.904	0.729	0.875	0.707	0.722	0.713	0.929	0.514	0.673	0.444	0.522	0.446	0.538
NCI-H358	0.812	0.877	0.667	0.631	0.562		0.199	0.232	0.224	0.382	0.283	0.376	0.49	0.343	0.383	0.369	0.376
NCI-H838	1.03	1.05	1.02	0.991	0.975	0.514	0.447	0.452	0.478	0.359	0.292	0.346	0.328	0.544	0.572	0.597	0.648
